Values of other authors in patent US20210213090A1, “COMPOSITIONS, USES AND METHODS FOR TREATMENT AND/OR PREVENTION OF ELEVATED CHOLESTEROL, HYPERCHOLESTEROLEMIA, AND CARDIOVASCULAR DISEASE” (Nutraceutical Holdings Inc., priority 2018, published 2021).

Test system: LDL-C / cholesterol
Conditions: human, in vivo

COC1=C(OC)C(=O)C(C/C=C(\C)CC/C=C(\C)CC/C=C(\C)CC/C=C(\C)CC/C=C(\C)CC/C=C(\C)CC/C=C(\C)CC/C=C(\C)CC/C=C(\C)CCC=C(C)C)=C(C)C1=O [coenzyme Q10, ubiquinone]
effect of supplementation on statin-related muscle symptoms, in words: decreases statin-related mild-to-moderate muscle symptoms
